{"source": "patent US9511120B2", "about": "“Use of the angiotensin-(1-9) peptide or derivatives thereof, use of vectors overexpressing the ACE2 enzyme that produces angiotensin-(1-9) for preparing medicaments useful for preventing, reverting, inhibiting and/or reducing hypertension and/or inducing vasodilation” (PONTIFICA UNIVERSIDAD CATÓLICA DE CHILE, priority 2012, dated 2016)", "format_in_all_cases": "in vivo, rat", "key": {"[1]": {"system": "thoracic aortas of hypertensive rats by angiotensin II infusion", "test": "Angiotensin II infusion model: aortic hypertrophy by morphometry", "conditions": "thoracic aorta, 14 days infusion", "experimental": "(§1) Rats were subjected to the model of angiotensin II infusion (Grobe et al.: Am. J. Physiol. 292: H736-42, 2007). The animals were separated randomly into the following experimental groups: controls (Sham or pseudo-operated), infused with angiotensin II (300 ng/kg min), infused with angiotensin II and angiotensin-(1-9) (300 ng/kg min and 602 ng/kg min, respectively), and then infused with angiotensin II, angiotensin-(1-9) and the angiotensin-(1-7) receptor antagonist, A779 (300 ng/kg min, 602 ng/kg min, and 100 ng/kg min, respectively). In all cases the pumps operated at a flow of 0.5 μL/h and were implanted in the right jugular vein through a catheter fitted in an intrascapular subcutaneous pocket under anesthesia with ketamine HCl/xylazine (35 and 7 mg/kg i.p., respectively), for a period of 14 days.\nAortic hypertrophy was determined by morphometry. Sections of the descending aorta of 5 μm thick, which were previously fixed in Bouin (1.3% picric acid, 9.5% formaldehyde and 4.8% acetic acid) for 24 hours, embedded in paraffin and stained with hematoxylin-eosin, were used, to be examined later in a light microscope as described by Igase et al. (Am. J. Physiol. 289:H1013-9, 2005). Briefly, images of the aortas were captured by a video camera (Nikon) fixed to a microscope (Nikon), and projected on a monitor; using the software Nis-Element. Lumen areas (LA) and total areas (TA) were calculated and recorded. The tunica media area (TMA) was obtained from the difference between the TA and LA of the aorta. The tunica media thickness (TMT) was defined as the region delimited by the external elastic lamina (EEL) and internal elastic lamina (IEL)."}, "TGF-β mRNA": {"system": "TGF-β mRNA", "test": "Angiotensin II infusion model: TGF-β mRNA levels in the aortic wall", "conditions": "angiotensin II-infused rats", "experimental": "as §1\n(§2) The procedure described by Ocaranza et al. (Hypertension 48:572-8, 2006) was followed. Briefly, total RNA was isolated from the aorta using the trizol method and quantified by spectroscopy at 260 nm/280 nm. The cDNA was obtained by reverse transcription from 1.5 μg of total RNA treated with DNAse. […] The band intensity was quantified by densitometry and normalized to the 18S ribosomal RNA band."}, "MCP-1 mRNA": {"system": "MCP-1 mRNA", "test": "Angiotensin II infusion model: MCP-1 mRNA levels in the aortic wall", "experimental": "as §1, §2"}, "collagen I": {"system": "collagen I", "test": "Angiotensin II infusion model: collagen I protein levels in the aortic wall by Western blot", "conditions": "angiotensin II-hypertensive rats", "experimental": "as §1\n(§3) For the determination of collagen I and TGFβ-1, 30 μg and 50 μg of total proteins were used, respectively, diluted in SDS reducing buffer (50 mM tris-HCl, pH 7.4, NP-40 10%, NaCl 1M, Na deoxycholate 5%, EDTA 10 mg/mL, SDS 10%, aprotinin 1 mg/mL, leupeptin 0.1 mg/mL, PMSF 10 mM), they were then separated by SDS-PAGE gel electrophoresis 7%, and transferred to nitrocellulose membranes of […] to 300 mA for 1 h. The transfer of proteins was monitored by Ponceau red staining. […]"}, "TGFβ-1": {"system": "TGFβ-1", "test": "Goldblatt model: TGFβ-1 protein levels in the aortic wall", "conditions": "GB rats", "source_text": "(§4) Lewis normotensive rats (weight 150±10 g), which were separated randomly into the experimental hypertension model group or GB (Ocaranza et al. J. Hypertens. 20:413-20, 2002) or control group (S) were used. The latter corresponded to pseudo-operated animals. All animals were maintained under controlled conditions of light and darkness and had free access to food and water. Four weeks after surgery and at a blood pressure above 140 mmHg, GB rats were randomized for the chronic administration of angiotensin-(1-9) through an osmotic pump (602 ng kg^−1min^−1) via the jugular vein during two weeks. The animals were euthanized after 6 weeks post-surgery.\nas §3"}, "ED-1 [2]": {"system": "ED-1", "test": "Goldblatt model: ED-1 levels of the aortic wall (immunohistochemistry)", "conditions": "GB rats", "source_text": "as §4\n(§5) Immunostaining was performed using the streptavidin-biotin-peroxidase method with the inflammation marker ED-1. This is a glycoprotein expressed primarily in the lysosomal membrane of active macrophages (Leskovar et al. J. Exp. Biol. 203:1783-1795, 2000).\n(§6) In order to block endogenous peroxidase, the samples were deparaffinized, rehydrated and treated with 10% H2O2 in methanol for 1 h. Then, the tissues were incubated with monoclonal antibody anti ED-1 (clone MCA341R, Serotec) diluted 1/1000 in 1% BSA prepared in PBS-0.05% Tween 20 overnight at 4° C. in a humid chamber. The sections were washed three times with 1×PBS-0.05% Tween 20, pH 7.4 for 5 min and incubated with the biotinylated secondary antibody for 30 min at room temperature. […]"}, "ED-1 [3]": {"system": "ED-1", "test": "Goldblatt model: ventricular content of ED-1", "conditions": "GB rats, ventricle", "source_text": "as §4, §5, §6"}}, "note": "Marks after values point to notes of the source that are not given here. Where no end group is shown, it is not given here.", "data": [{"sequence": "DRVYIHPFH", "values": [{"measurement": "ratio of tunica media area (TMA) to LA", "setting": "[1]", "result": "significantly prevented the increase"}, {"measurement": "thickness of the tunica media (TMT)", "setting": "[1]", "result": "significantly prevented the increase"}, {"measurement": "reduction of TGF-β mRNA levels", "setting": "TGF-β mRNA", "result": 62.5, "unit": "%"}, {"measurement": "MCP-1 mRNA levels", "setting": "MCP-1 mRNA", "result": "no differences"}, {"measurement": "prevention of the increase of collagen in the aortic wall", "setting": "collagen I", "result": 60, "unit": "%"}, {"measurement": "decrease of TGFβ-1 levels", "setting": "TGFβ-1", "result": 47, "unit": "%"}, {"measurement": "decrease of ED-1 levels", "setting": "ED-1 [2]", "result": 82, "unit": "%"}, {"measurement": "# Positive cells (ED-1)", "setting": "ED-1 [3]", "result": "0-20"}, {"measurement": "Assigned value (ventricular content of ED-1)", "setting": "ED-1 [3]", "result": "1^# (Low number of ED1 and isolated)"}]}]}
